Measured values taken from patent US20060204449A1, “Nasal pharmaceutical composition of piribedil” (priority 2003, published 2006).

How the values were obtained:
[1] = humans; cited from earlier work
[2] = Kinetics, tolerance and bioavailability study in healthy volunteers (nasal administration); assay type: in vivo, humans; conditions: human, plasma, inhaled or intranasal, formulation of Example 1, deduced from the kinetics results, read-out: bioavailability of piribedil administered by the nasal route
Procedure: Kinetics, Tolerance and Bioavailability Study in Healthy Volunteers
A study was carried out in 24 healthy volunteers in order to assess the local tolerance of the pharmaceutical composition according to the invention and also the kinetics of the formulation.
This study was carried out using the formulation described in Example 1, administered with the aid of a metering pump which delivers 100 μl of solution on each spray. The doses of piribedil tested are as follows: 0.1 mg, 0.25 mg, 0.5 mg, 1 mg and 2 mg, administered using two sprays each of 100 μl.

For c1cnc(N2CCN(Cc3ccc4c(c3)OCO4)CC2)nc1 [piribedil, Piribedil], the “bioavailability by the oral route in relation to the parenteral route” value [1] is given as “low” and the bioavailability [2] is given as 50 to 70%.
